Test results taken from US20200268829A1, “METHODS AND COMPOSITIONS FOR INHIBITING METASTASES OF AN ENDOTHELIN B RECEPTOR EXPRESSING CANCER” (ENB Therapeutics, Inc., priority 2020, published 2020).
pIC50, pKi: −log10 of the molar value. Entries after “also recorded” stand apart in the source; their conditions may differ.

Columns and labels:
ETBR = target: T1, ETBR (Homo sapiens, UniProt P24530); experiment: ETBR antagonist potency (IC50, Ki); no method given; type: binding; settings: for pIC50: for BQ788 printed with 'potent inhibitor of ETBR-related melanoma cell growth'
T1 sequence (P24530 27-442): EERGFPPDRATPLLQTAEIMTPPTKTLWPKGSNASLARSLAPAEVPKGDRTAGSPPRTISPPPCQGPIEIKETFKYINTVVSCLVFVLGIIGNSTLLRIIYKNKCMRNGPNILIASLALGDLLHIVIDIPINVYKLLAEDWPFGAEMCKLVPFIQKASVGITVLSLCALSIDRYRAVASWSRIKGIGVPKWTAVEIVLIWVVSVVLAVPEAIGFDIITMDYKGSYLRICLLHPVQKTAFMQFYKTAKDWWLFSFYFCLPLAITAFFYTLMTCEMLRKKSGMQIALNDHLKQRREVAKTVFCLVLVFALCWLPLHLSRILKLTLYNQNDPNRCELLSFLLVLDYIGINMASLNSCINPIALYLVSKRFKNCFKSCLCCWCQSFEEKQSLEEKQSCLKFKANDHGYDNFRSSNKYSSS

[1] = tested on: melanoma cell lines overexpressing ETBR (brain metastases); experiment: Mouse melanoma brain metastasis model, xenografts of melanoma cell lines overexpressing ETBR; type: in vivo, mice; settings: 60 mg/kg/day
Protocol: FIGS. 5A, 5B, 5C, 5D, and 5E. ETBR antagonist inhibits melanoma brain metastasis in mice. […] In this study, lentiviral vectors were used to overexpress ETBR in melanoma cell lines, which were in turn used to implant xenografts in mice.
A192621 was administered at a dose of 60 mg/kg/day using a mouse melanoma model. […] In this study, lentiviral vectors were used to overexpress ETBR in melanoma cell lines, which were in turn used to implant xenografts in mice. In this study, lentiviral vectors were used to overexpress ETBR in melanoma cell lines, which were in turn used to implant xenografts in mice.

[2] = tested on: SKMEL28 human melanoma cells; experiment: SKMEL28 human melanoma xenograft in mice: tumor weight, lung metastases, apoptosis; type: in vivo
Protocol: Mice were implanted with 1×10^6 SKMEL28 human melanoma cells. Tumors were established for 10 days until palpable then 120 ng (˜60 ug/kg) BQ788 dissolved in DMSO was injected IP 3×per week×6 weeks. Mice were then sacrificed and lungs harvested and tumors weighed. A 75% reduction in tumor weight was observed.

[3] = Body weight under ascending intranasal BQ788 doses over 42 days; type: in vivo, athymic nude mice; settings: BQ788 alone, intranasally in 20% DMSO, ascending doses over 42 days
Protocol: FIG. 9. ETAR antagonist and Niacinamide mitigate weight loss from BQ788. Six week old athymic nude mice were administered the ETBR antagonist BQ788 intranasally in 20% DMSO at the indicated ascending doses over a period of 42 days. One group was additionally administered the ETAR antagonist Macitentan orally at a dose of 5 mg/kg daily. The drinking water of these mice was supplemented with the B vitamin niacinamide at a concentration of 0.3 mg/mL. […] Co-administration of the ETAR antagonist Macitentan with niacinamide supplementation mitigated this weight loss. […] Co-administration of ETAR antagonists and niacinamide with ETBR antagonists mitigated the adverse effects of ETBR antagonists when administered for therapeutic purposes.
Six week old athymic nude mice (n=3 per group) were administered the ETBR antagonist BQ788 intranasally in 20% DMSO at the indicated ascending doses over a period of 42 days. One group was additionally administered the ETAR antagonist Macitentan orally at a dose of 5 mg/kg daily. The drinking water of these mice was supplemented with the B vitamin niacinamide at a concentration of 0.3 mg/mL. […] Co-administration of the ETAR antagonist Macitentan with niacinamide supplementation mitigated this weight loss. […]

[4] = tested on: A375 human melanoma cells; experiment: Subcutaneous A375 human melanoma xenograft; type: in vivo, Nu/J nude mice; settings: A375 sc xenograft; Dabrafenib 100 mg/Kg PO daily, alone or with BQ788 600 ng IP TIW; p<0.05
Protocol: FIG. 7. BQ788 synergizes with Dabrafenib in vivo. A375 human melanoma cells were implanted subcutaneously into the rear flank of Nu/J nude mice and allowed to grow to 150 mm3-200 mm3 prior to randomization and initiation of treatment. The mice received the following treatments: (1) vehicle (n=8), (2) Dabrafenib 100 mg/Kg PO daily (n=5), and (3) Dabrafenib+BQ788 600 ng IP TIW (n=5).
A375 human melanoma cells (3×10^6) were implanted subcutaneously into the rear flank of Nu/J nude mice and allowed to grow to 150 mm3-200 mm3 prior to randomization and initiation of treatment. The treatment groups were as follows: (1) vehicle (n=8), Dabrafenib 100 mg/Kg PO daily (n=5), (2) Dabrafenib+BQ788 600 ng IP 3×per week (n=5).

Row | SMILES | pKi (ETBR) | pIC50 (ETBR) | CNS melanoma tumors [1] | brain melanoma metastases [1] | survival [1] | reduction in tumor weight ([2]; SKMEL28 xenograft mice, 120 ng (~60 ug/kg) BQ788 in DMSO IP 3x per week x 6 weeks) [%] | clearance of lung metastases ([2]; SKMEL28 xenograft mice, 120 ng (~60 ug/kg) BQ788 in DMSO IP 3x per week x 6 weeks, vs control mice) [%] | apoptosis in melanoma tumor cells ([2]; melanoma tumor cells) | average weight loss relative to baseline body weight by the end of the study [3] [%] | tumor growth [4]
1 | CCCOc1ccc([C@H]2[C@H](C(=O)O)[C@@H](c3ccc4c(c3)OCO4)CN2CC(=O)Nc2c(CC)cccc2CC)cc1 [A192621, (2R,3R,4S)-4-(1,3-benzodioxol-5-yl)-1-[2-(2,6-diethylanilino)-2-oxoethyl]-2-(4-propoxyphenyl)pyrrolidine-3-carboxylic acid] | 8.06 | 8.35 | shrinks CNS melanoma tumors | shrinks brain melanoma metastases | increases survival |  |  |  |  | 
2 | CCCC[C@@H](NC(=O)[C@@H](Cc1cn(C(=O)OC)c2ccccc12)NC(=O)[C@H](CC(C)(C)C)NC(=O)N1[C@H](C)CCC[C@@H]1C)C(=O)O [BQ788] | 7.75 | 8.92 |  |  |  | 75 | > 95 | induces apoptosis | 5 | 
3 | CC(C)(C)c1nc(-c2cccc(NS(=O)(=O)c3c(F)cccc3F)c2F)c(-c2ccnc(N)n2)s1 [Dabrafenib] |  |  |  |  |  |  |  |  |  | retarded the growth of tumors; also recorded: retarded tumor growth
